# Like-named read-outs stand apart in the source and are kept apart here.
# Experiments:
# [1] = target: T1, Brain AChE (acetylcholinesterase, rat striatum) (Rattus norvegicus, UniProt P37136); test: biochemical; conditions: rat striatum homogenate; 5 mM acetylthiocholine; pH 7.2; 10 min preincubation at 37° C.; read-out: Inhibitory Concentration, Brain AChE
# T1 construct: corpora striata dissected free, weighed and homogenized in 19 volumes; from tissue; host or cells: corpora striata of male Wistar rats, crude homogenate
# T1 sequence (P37136 32-614): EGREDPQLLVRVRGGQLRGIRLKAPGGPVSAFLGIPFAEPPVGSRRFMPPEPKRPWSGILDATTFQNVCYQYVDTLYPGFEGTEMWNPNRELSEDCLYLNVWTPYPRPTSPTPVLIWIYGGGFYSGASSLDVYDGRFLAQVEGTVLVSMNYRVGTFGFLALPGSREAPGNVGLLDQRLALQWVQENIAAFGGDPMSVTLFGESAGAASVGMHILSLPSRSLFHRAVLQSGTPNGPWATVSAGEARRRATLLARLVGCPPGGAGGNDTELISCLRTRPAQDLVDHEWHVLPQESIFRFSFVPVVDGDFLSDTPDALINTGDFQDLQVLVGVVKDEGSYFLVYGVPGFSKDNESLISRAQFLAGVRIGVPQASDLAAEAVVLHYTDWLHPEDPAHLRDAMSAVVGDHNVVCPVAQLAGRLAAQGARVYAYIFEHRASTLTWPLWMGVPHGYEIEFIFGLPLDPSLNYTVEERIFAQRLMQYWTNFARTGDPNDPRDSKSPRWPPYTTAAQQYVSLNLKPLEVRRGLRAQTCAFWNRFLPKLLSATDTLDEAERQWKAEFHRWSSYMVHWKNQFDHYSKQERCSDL
# Text: Cholinesterases are found throughout the body, both in the brain and in serum. However, only brain acetylcholinesterase (AChE) distribution is correlated with central cholinergic innervation. […] We have determined in vitro inhibition of acetylcholinesterase activity in rat striatum according to the method described below.
# In Vitro Inhibition of Acetylcholinesterase Activity in Rat Striatum
# The method described below was used in this invention for assaying anticholinesterase activity. This is a modification of the method of Ellman et al., Biochem. Pharmacol. 7, 88 (1961).
# 1. 0.05M Phosphate buffer, pH 7.2
# (a) 6.85 g NaH2 PO4 .cndot.H2 O/100 ml distilled H2 O
# (c) add (a) to (b) until pH reaches 7.2
# 4. A 2 mM stock solution of the test drug is made up in a suitable solvent and q.s. to volume with 0.5 mM DTNB (reagent 3). Drugs are serially diluted (1:10) such that the final concentration (in cuvette) is 10^-4 M and screened for activity. If active, IC50 values are determined from the inhibitory activity of subsequent concentrations.
# Enzyme activity is measured with the Beckman DU-50 spectrophotometer. This method can be used for IC50 determinations and for measuring kinetic constants.
# This program also calculates the rate of absorbance change for each cuvette.
# Substrate concentration is 10 mM diluted 1:2 in assay yielding final concentration of 5 mM.
# [2] = test system: Scopolamine Induced Memory Deficit; type: in vivo, mice
# Description: In this assay mice are tested for their ability to remember an unpleasant stimulus for a period of 24 hours. A mouse is placed in a chamber that contains a dark compartment; a strong incandescent light drives it to the dark compartment, where an electric shock is administered through metal plates on the floor. The animal is removed from the testing apparatus and tested again, 24 hours later, for the ability to remember the electric shock.
# If scopolamine, an anticholinergic that is known to cause memory impairment, is administered before an animal's initial exposure to the test chamber, the animal re-enters the dark compartment shortly after being placed in the test chamber 24 hours later. This effect of scopolamine is blocked by an active test compound, resulting in a greater interval before-re-entry into the dark compartment.
# The results for an active compound are expressed as the percent of a group of animals in which the effect of scopolamine is blocked, as manifested by an increased interval between being placed in the test chamber and re-entering the dark compartment.
# Results of this assay for some of the compounds of this invention and those for tacrine and pilocarpine (reference compounds) are presented in Table 2.
# norepinephrine uptake = test: 3H-Norepinephrine Uptake in Rat Whole Brain Synaptosomes; type: biochemical; conditions: 50 nM 3H-NE, 37° C., 5 minutes, read-out: IC50 (3H-norepinephrine uptake inhibition)
# Description: ^3 H-Norepinephrine Uptake in Rat Whole Brain Synaptosomes
# This assay is used as a biochemical screen for compounds that enhance adrenergic mechanism by blocking norepinephrine uptake.
# A. Animals: Male CR Wistar rats (100-125 g).
# 1. Krebs-Henseleit Bicarbonate Buffer, pH 7.4 (KHBB). Make a 1 liter batch, containing the following salts.
# 2. 0.32M Sucrose: 21.9 g of sucrose, Q.S. to 200 ml.
# 3. A 0.1 mM stock solution of L(-)-Norepinephrine bitartrate is made up in 0.01N HCl. This is used to dilute the specific activity of radiolabeled NE.
# 4. Levo-[Ring-2,5,6-^3 H]-Norepinephrine (40-50 Ci/mmol) is obtained from New England Nuclear. The final desired concentration of ^3 H-NE in the assay is 50 nM. The dilution factor is 0.8; therefore the KHBB is made up to contain 62.5 nM [^3 H]-NE. Add to 100 ml of KHBB:
# 5. For most assays, a 1 mM stock solution of the test compound is made up in suitable solvent and serially diluted such that the final concentration in the assay ranges from 2×10^-8 to 2×10^-5 M. Seven concentrations are used for each assay. Higher or lower concentrations may be used depending on the potency of the test compound.
# Male Wistar rats are decapitated and brains rapidly removed. Either whole brain minus cerebella or hypothalamus is weighed and homogenized in 9 volumes of ice-cold 0.32M sucrose using a Potter-Elvejhem homogenizer. Homogenization should be done with 4-5 up and down strokes at medium speeds to minimize synaptosome lysis. The homogenate is centrifuged at 1000 g for 10 min at 0°-4° C. The supernatant (S1) is decanted and is used for uptake experiments.
# 800 μl: KHBB containing [^3 H]-NE
# 20 μl: Vehicle or appropriate drug concentration
# 200 μl: Tissue suspension
# Tubes are incubated at 37° C. under a 95% O2 /5% CO2 atmosphere for 5 minutes. For each assay, 3 tubes are incubated with 20 μl of vehicle at 0° C. in an ice bath. After incubation all tubes are immediately centrifuged at 4000 g for 10 minutes. […] The tubes are vigorously vortexed, decanted into scintillation vials, and counted in 10 ml of Liquiscint scintillation counting cocktail. […]
smiles,measurement,setting,value
"CNC(=O)Oc1ccc2c(ccn2N2CCOc3cnccc32)c1 [1-(Pyrido-[3,4-b]-1,4-oxazin-4-yl)-1H-indol'-5-yl methylcarbamate]",IC50,[1],0.054 µM
same,% of Animals with Scopolamine Induced Memory Deficit Reversal,"[2]; mice, 0.01 mg/kg of body weight, s.c., retest 24 hours",27%
same,% of Animals with Scopolamine Induced Memory Deficit Reversal,"[2]; mice, 0.03 mg/kg of body weight, s.c., retest 24 hours",20%
same,% of Animals with Scopolamine Induced Memory Deficit Reversal,"[2]; mice, 0.10 mg/kg of body weight, s.c., retest 24 hours",33%
"Cc1cn(N2CCOc3cnccc32)c2ccccc12 [4-(3-Methyl-1H-indol-1-yl)-pyrido[3,4-b]-1,4-oxazine]",IC50,norepinephrine uptake,6 µM
CN(C)CCC=C1c2ccccc2CCc2ccccc21 [Amitriptyline],IC50,norepinephrine uptake,7.7 µM
CNCCC=C1c2ccccc2CCc2ccccc21 [Nortriptyline],IC50,norepinephrine uptake,4 µM
"CC[C@@H]1C(=O)OC[C@@H]1Cc1cncn1C [Pilocarpine, reference compound]",% of Animals with Scopolamine Induced Memory Deficit Reversal,"[2]; mice, 5.0 mg/kg of body weight, s.c., retest 24 hours",13%
"Nc1c2c(nc3ccccc13)CCCC2 [Tacrine, reference compound]",% of Animals with Scopolamine Induced Memory Deficit Reversal,"[2]; mouse, in vivo, sc, 0.63 mg/kg",13%
